# Results as given in ChEMBL document CHEMBL1157502, “Carbaporphyrin ketals as potential agents for a new photodynamic therapy treatment of leishmaniasis” (Bioorg Med Chem, 2008).
# Active and inactive are the calls of the source. The rule behind the calls is not given here.
# What was measured:
# Assay type in all cases: functional, organism-based
# Leishmania tarentolae [1] = test: Growth inhibition of Leishmania tarentolae axenic promastigotes after 2 days relative to ethanol
# Leishmania tarentolae [2] = test: Growth inhibition of Leishmania tarentolae promastigotes assessed as mitochondrial superoxide production at 5 to 10 uM after 3 hrs by confocal fluorescence microscopy
# Leishmania tarentolae [3] = test: Growth inhibition of light-illuminated Leishmania tarentolae promastigotes assessed as enhancement of mitochondrial superoxide production at 5 to 10 uM after 3 hrs by confocal fluorescence microscopy
# Leishmania tarentolae [4] = test: Induction of mitochondrial singlet oxygen production in Leishmania tarentolae promastigotes at 2 uM by confocal fluorescence microscopy
# Leishmania tarentolae [5] = test: Growth inhibition of Leishmania tarentolae axenic promastigotes upto 40 uM
SMILES,Activity (Leishmania tarentolae [1]),Activity (Leishmania tarentolae [2]),Activity (Leishmania tarentolae [3]),Activity (Leishmania tarentolae [4]),Activity (Leishmania tarentolae [5])
CCC1=C(CC)/C2=C/c3[nH]c(c(C)c3CC)/C=C3/c4ccccc4/C(=C/C4=NC(=C\C1=N2)/C(CC)=C4C)C3(OC)OC,Dose-dependent effect,Active,Active,Active,inactive
CCOC1(OCC)/C2=C\C3=NC(=C\C4=NC(=C\c5[nH]c(c(C)c5CC)/C=C\1c1ccccc12)/C(CC)=C4CC)/C(CC)=C3C,Dose-dependent effect,Active,Active,,inactive
